In patent publication US20110288042A1, “STABLE HIGHLY PURE AZACITIDINE AND PREPARATION METHODS THEREFOR” (CHEMAGIS LTD., priority 2007, published 2011):

Assay: Induced degradation of 5-azacytidine in solid state (observation, FT-IR, HPLC)
Type: physicochemical
Conditions: for Area (%) at RRT 1.00 (5-azacytidine) / Area (%) of peak at RRT 0.63 / Area (%) of peak at RRT 2.01 / Area (%) of peak at RRT 2.05 / Total impurities (%): solid
Description: The HPLC measurements were performed using a system equipped with an Inertsil C18 column (ODS-2, 5 microns, 250×4.6 mm (ODS-167)). Other parameters of the system were as follows: • Detection: UV detector operated on 242 nm • Column temperature: 20° C. • Run time: 45 minutes • Injection volume: 10 μl • Flow rate: 1.0 ml/minute • Sample set temperature: 5° C. • Sample concentration: about 1.65 mg/ml • Diluent: Mixture of 30% 10 mM ammonium acetate and 70% THF
Analyses were performed using the following mobile phase • Mobile Phase (Eluent) A: 10 mM ammonium acetate • Mobile Phase (Eluent) B: 60% 10 mM ammonium acetate, 40% MeOH
The sample was placed in a UV chamber and exposed to UV light for 48 hours. • Accelerated conditions [40±2° C./75±5% Relative Humidity (RH)].
At the end of the stipulated time period, the physical descriptions of each sample were noted down. Identification tests were performed by FT-IR, and purity checks were performed by HPLC analysis. The protected sample, as defined herein, is the reference storage material used for carrying out the experiments detailed in Tables 7 and 8.

[1] = accelerated conditions (40 ± 2° C., 75 ± 5% RH), 48 hours
[2] = exposure to ambient conditions, visible light 48 hours
[3] = exposure to elevated temperature (105° C.), 48 hours

For `Nc1ncn([C@@H]2O[C@H](CO)[C@@H](O)[C@H]2O)c(=O)n1` [5-azacytidine, 4-amino-1-β-D-ribofuranosyl-1,3,5-s-triazine-2(1H)-one], the FT-IR spectra changes (solid state induced degradation) was “did not show any significant changes”, the “Stability in solid state (HPLC analysis)” value (solid state, Tables 7 and 8) was “stable to heat and IJV light” and the “Change in color of the sample” value (solid state, exposed to an elevated temperature) was “slight change in color”. For the same compound, the “Area (%) at RRT 1.00 (5-azacytidine)” value [1] was 97.04%, the “Area (%) of peak at RRT 0.63” value [1] was 1.90% and the “Area (%) of peak at RRT 2.01” value [1] was 0.80%. The “Area (%) of peak at RRT 2.05” value [1] was 0.14%, the “Total impurities (%)” value [1] was 2.96% and the “Area (%) at RRT 1.00 (5-azacytidine)” value (exposure to UV light, 48 hours) was 96.64%. For the same compound, the “Area (%) of peak at RRT 0.63” value (exposure to UV light, 48 hours) was 1.66%, the “Area (%) of peak at RRT 2.01” value (exposure to UV light, 48 hours) was 1.35% and the “Area (%) of peak at RRT 2.05” value (exposure to UV light, 48 hours) was 0.24%. For the same compound, the “Total impurities (%)” value (exposure to UV light, 48 hours) was 3.36%, the “Area (%) at RRT 1.00 (5-azacytidine)” value [2] was 96.75% and the “Area (%) of peak at RRT 0.63” value [2] was 1.52%. The “Area (%) of peak at RRT 2.01” value [2] was 1.36%, the “Area (%) of peak at RRT 2.05” value [2] was 0.27% and the “Total impurities (%)” value [2] was 3.25%. For the same compound, the “Area (%) at RRT 1.00 (5-azacytidine)” value [3] was 96.61%, the “Area (%) of peak at RRT 0.63” value [3] was 2.00% and the “Area (%) of peak at RRT 2.01” value [3] was 1.01%. The “Area (%) of peak at RRT 2.05” value [3] was 0.17%, the “Total impurities (%)” value [3] was 3.39% and the “Area (%) at RRT 1.00 (5-azacytidine)” value (protected sample (storage)) was 96.72%. The “Area (%) of peak at RRT 0.63” value (protected sample (storage)) was 1.55%, the “Area (%) of peak at RRT 2.01” value (protected sample (storage)) was 1.37% and the “Area (%) of peak at RRT 2.05” value (protected sample (storage)) was 0.24%. For the same compound, the “Total impurities (%)” value (protected sample (storage)) was 3.28%.
